Laboratory results: ChEMBL document CHEMBL5584322, “Nonpeptidic Irreversible Inhibitors of SARS-CoV-2 Main Protease with Potent Antiviral Activity” (J Med Chem, 2024)
Calls of active or inactive are those of the source. The rule behind the calls is not given here.

How the values were obtained:
[1] = molecular target: Replicase polyprotein 1ab (Severe acute respiratory syndrome coronavirus 2, UniProt P0DTD1); test: Inhibition of full-length SARS CoV-2 MPro expressed in Escherichia coli BL21(DE3) using Boc-Abu-Tle-Leu-Gln-AMC as substrate incubated for 10 mins by fluorescence based assay
[2] = tested on: Severe acute respiratory syndrome-related coronavirus; test: Inhibition of SARS CoV-1 MPro using Boc-Abu-Tle-Leu-Gln-AMC as substrate incubated for 10 mins by fluorescence based assay
[3] = Stability of compound in 1 mM GSH at 100 uM incubated for 1 hr by HPLC-ESI-MS analysis; assay type: ADME
[4] = molecular target: Replicase polyprotein 1ab (Severe acute respiratory syndrome coronavirus 2) (UniProt P0DTD1); test: Inhibition of full-length SARS CoV-2 MPro expressed in Escherichia coli BL21(DE3) using Boc-Abu-Tle-Leu-Gln-AMC as substrate at 1 uM incubated for 10 mins by fluorescence based assay relative to control
[5] = Stability of compound in 1 mM GSH assessed as compound remaining at 10 to 100 uM incubated for 1 hr by HPLC-ESI-MS analysis; assay type: ADME; conditions: 1 mM GSH solution, dose 10-100 µM, read-out: Stability
[6] = Stability of compound in 1 mM GSH at 10 uM incubated for 1 hr by HPLC-ESI-MS analysis; assay type: ADME
[7] = molecular target: Replicase polyprotein 1ab (Severe acute respiratory syndrome coronavirus 2) (UniProt P0DTD1); test: Inhibition of His-tagged recombinant SARS CoV-2 MPro expressed in Escherichia coli BL21(DE3) using Boc-Abu-Tle-Leu-Gln-AMC as substrate at 1 uM incubated for >6 hrs by fluorescence based assay relative to control
SARS-CoV-2 = test: microbe, parasite or virus in culture; conditions: Severe acute respiratory syndrome coronavirus 2, Calu-3
Calu-3 [8] = test: (§1) Cytotoxicity against human Calu-3 cells; assay type: toxicity, cell-based; conditions: calu-3, 10 µM, dose 10 µM
[9] = as §1; assay type: toxicity, cell-based; conditions: Calu-3 cells
[10] = molecular target: Replicase polyprotein 1ab (Severe acute respiratory syndrome coronavirus 2) (UniProt P0DTD1); test: Inhibition of His-tagged recombinant SARS CoV-2 MPro expressed in Escherichia coli BL21(DE3) using Boc-Abu-Tle-Leu-Gln-AMC as substrate at 1 uM incubated for shorter period by fluorescence based assay relative to control
Calu-3 [11] = test: Cytotoxicity against human Calu-3 cells at 10 uM; assay type: toxicity, cell-based; conditions: calu-3, 10 µM
[12] = Inhibition of MERS CoV MPro using Boc-Abu-Tle-Leu-Gln-AMC as substrate incubated for 10 mins by fluorescence based assay; design: species or system Middle East respiratory syndrome-related coronavirus

O=C(Oc1cncc(Cl)c1)c1ccc(-c2cccnc2)cc1
IC50 [1]: 0.137 µM

O=C(Oc1cncc(Cl)c1)c1cccc(F)c1
IC50 [1]: 0.0464 µM

O=C(Oc1cncc(Cl)c1)c1ccc(Cl)cc1
IC50 [1]: 0.218 µM

O=C(Oc1cncc(Cl)c1)c1ccccc1F
inhibition [2]: Active | IC50 [1]: 0.0259 µM

O=C(Oc1cncc(Br)c1)c1ccc(Cl)c(Cl)c1
IC50 [1]: 0.0375 µM

Nc1ccc(C(=O)Oc2cncc(Cl)c2)c(F)c1
Stability [3]: Stable | IC50 [1]: 0.943 µM

CCCCCCCOc1ccc(C(=O)Oc2cncc(Cl)c2)cc1
Stability [3]: Stable | inhibition [4]: 8% | IC50 [1]: > 1 µM | remaining at 1 h, up to 100 µM [5]: 50%

O=C(Oc1cncc(Cl)c1)c1cc(Cl)cc(Cl)c1
IC50 [1]: 0.133 µM

O=C(Oc1cncc(Cl)c1)c1cccc(Cl)c1Cl
inhibition [2]: Active | IC50 [1]: 0.126 µM

O=C(Oc1cncc(Cl)c1)c1ccc(Br)cc1F
inhibition [2]: inactive | IC50 [1]: 0.0349 µM

COc1cccc(C(=O)Oc2cncc(Br)c2)c1
IC50 [1]: 0.0199 µM

O=C(Oc1cncc(Cl)c1)c1cc(F)cc(F)c1
IC50 [1]: 0.0383 µM

CCOc1ccc(C(=O)Oc2cncc(Br)c2)c(F)c1
Stability [6]: Unstable | inhibition [7]: 100% | IC50 [1]: 0.107 µM

O=C(Oc1cncc(Cl)c1)c1ccccc1-c1ccccc1
Stability [3]: Stable | Stability [6]: Unstable | inhibition [4]: 6% | IC50 [1]: > 1 µM

COc1c(Cl)ccc(C(=O)Oc2cncc(Cl)c2)c1F
IC50 [1]: 0.0707 µM

O=C(Oc1cncc(Br)c1)c1cccc(Cl)c1
IC50 [1]: 0.0505 µM

O=C(Oc1cncc(Br)c1)c1ccccc1F
IC50 [1]: 0.0107 µM

O=C(Oc1cncc(Cl)c1)c1ccccc1Cl
IC50 [1]: 0.0604 µM

COc1ccccc1C(=O)Oc1cncc(Cl)c1
inhibition [2]: inactive | IC50 [1]: 0.264 µM

COc1cccc(C(=O)Oc2cncc(Cl)c2)c1OC
inhibition [2]: Active | inhibition [7]: 100% | IC50 [1]: 0.0845 µM

O=C(Oc1cncc(Cl)c1)c1cccc(Cl)c1
IC50 [1]: 0.0551 µM

O=C(Oc1cncc(Br)c1)c1ccc(I)cc1F
Stability [3]: Stable | IC50 [1]: 0.0335 µM

O=C(Oc1cncc(Cl)c1)c1ccc(-c2ccccc2)cc1
Stability [3]: Stable | EC50 (SARS-CoV-2): 0.0587 µM | inhibition [2]: inactive | Activity (Calu-3 [8]): Dose-Dependent Effect | CC50 [9]: 14.7 µM | IC50 [1]: 0.15 µM | remaining at 1 h, up to 100 µM [5]: 50%

O=C(Oc1cncc(Br)c1)c1ccccc1
IC50 [1]: 0.0405 µM

O=C(Oc1cncc(Cl)c1)c1ccc(F)cc1
IC50 [1]: 0.119 µM

O=C(Oc1cncc(Cl)c1)c1ccc(Cl)cc1Cl
inhibition [2]: Active | IC50 [1]: 0.108 µM | inhibition [10]: 100%

CCOc1ccc(C(=O)Oc2cncc(Cl)c2)c(F)c1
EC50 (SARS-CoV-2): 0.00268 µM | inhibition [2]: inactive | Activity (Calu-3 [11]): Non-Toxic | inhibition [7]: 100% | IC50 [1]: 0.0474 µM

O=C(Oc1cncc(Br)c1)c1ccc(Cl)cc1
IC50 [1]: 0.0957 µM

COc1cccc(C(=O)Oc2cncc(Cl)c2)c1
Stability [6]: Unstable | inhibition [2]: Active | IC50 [1]: 0.00513 µM | IC50 [12]: 0.112 µM

CCOc1ccc(C(=O)Oc2cncc(Cl)c2)cc1
IC50 [1]: 0.329 µM | remaining at 1 h, up to 100 µM [5]: 50%
